Assays:
[1] = Toxicity in Mus musculus ddY (mouse) assessed as mortality at 3 mg/kg, ip after 4 days; format: organism-based; parameters: dose 3 mg/kg, route intraperitoneal; conditions: in vivo
[2] = tested on: Brassica rapa subsp. oleifera; experiment: Growth inhibition of Brassica rapa subsp. oleifera assessed as chlorophyll a level at 3 x 10^-5 M after 7 days; format: functional; parameters: scale not given: the % may be the effect or the level left
[3] = Toxicity in Mus musculus ddY (mouse) assessed as mortality at 5 mg/kg, ip after 2 days; format: organism-based; parameters: dose 5 mg/kg, route intraperitoneal; conditions: in vivo
[4] = tested on: Lactuca sativa; experiment: Growth inhibition of Lactuca sativa (lettuce) assessed as root growth at 3 x 10^-4 M after 7 days; format: functional
[5] = Toxicity in Mus musculus ddY (mouse) assessed as mortality at 7 mg/kg, ip after 1 day; format: organism-based; parameters: dose 7 mg/kg, route intraperitoneal; conditions: in vivo
[6] = tested on: Brassica rapa subsp. oleifera; experiment: Growth inhibition of Brassica rapa subsp. oleifera assessed as root growth at 1 x 10^-4 M after 7 days; format: functional
[7] = Toxicity in Mus musculus ddY (mouse) assessed as mortality at 6 mg/kg, ip after 2 days; format: organism-based; parameters: dose 6 mg/kg, route intraperitoneal; conditions: in vivo
[8] = tested on: Allium tuberosum; experiment: Growth inhibition of Allium tuberosum assessed as root growth at 1 x 10^-4 M after 10 days; format: functional
[9] = tested on: Brassica rapa subsp. oleifera; experiment: Growth inhibition of Brassica rapa subsp. oleifera assessed as chlorophyll b level at 3 x 10^-5 M after 7 days; format: functional; parameters: scale not given: the % may be the effect or the level left
[10] = Toxicity in Mus musculus ddY (mouse) assessed as mortality at 7 mg/kg, ip after 3 days; format: organism-based; parameters: dose 7 mg/kg, route intraperitoneal; conditions: in vivo
[11] = tested on: Brassica rapa subsp. oleifera; experiment: Growth inhibition of Brassica rapa subsp. oleifera assessed as root growth at 3 x 10^-4 M after 7 days; format: functional
[12] = tested on: Brassica rapa subsp. oleifera; experiment: Growth inhibition of Brassica rapa subsp. oleifera assessed as chlorophyll a level at 5 x 10^-5 M after 7 days; format: functional; parameters: scale not given: the % may be the effect or the level left
[13] = tested on: Lactuca sativa; experiment: Growth inhibition of Lactuca sativa (lettuce) assessed as root growth at 3 x 10^-5 M after 7 days; format: functional
[14] = tested on: Echinochloa esculenta; experiment: Growth inhibition of Echinochloa esculenta assessed as root growth at 5 x 10^-5 M after 7 days; format: functional
[15] = Toxicity in Mus musculus ddY (mouse) assessed as mortality at 3 mg/kg, ip after 7 days; format: organism-based; parameters: dose 3 mg/kg, route intraperitoneal; conditions: in vivo
[16] = tested on: Sesamum indicum; experiment: Growth inhibition of Sesamum indicum (sesame) assessed as root growth at 3 x 10^-5 M after 7 days; format: functional
[17] = Toxicity in Mus musculus ddY (mouse) assessed as mortality at 7 mg/kg, ip after 7 days; format: organism-based; parameters: dose 7 mg/kg, route intraperitoneal; conditions: in vivo
[18] = Toxicity in Mus musculus ddY (mouse) assessed as mortality at 6 mg/kg, ip after 4 days; format: organism-based; parameters: dose 6 mg/kg, route intraperitoneal; conditions: in vivo
[19] = Toxicity in Mus musculus ddY (mouse) assessed as mortality at 8 mg/kg, ip after 5 days; format: organism-based; parameters: dose 8 mg/kg, route intraperitoneal; conditions: in vivo
[20] = Toxicity in Mus musculus ddY (mouse) assessed as mortality at 5 mg/kg, ip after 4 days; format: organism-based; parameters: dose 5 mg/kg, route intraperitoneal; conditions: in vivo
[21] = tested on: Allium tuberosum; experiment: Growth inhibition of Allium tuberosum assessed as root growth at 3 x 10^-4 M after 10 days; format: functional
[22] = tested on: Daucus carota; experiment: Growth inhibition of Daucus carota (carrot) assessed as root growth at 5 x 10^-5 M after 7 days; format: functional
[23] = Toxicity in Mus musculus ddY (mouse) assessed as mortality at 6 mg/kg, ip after 5 days; format: organism-based; parameters: dose 6 mg/kg, route intraperitoneal; conditions: in vivo
[24] = tested on: Lactuca sativa; experiment: Growth inhibition of Lactuca sativa (lettuce) assessed as root growth at 1 x 10^-4 M after 7 days; format: functional
[25] = Toxicity in Mus musculus ddY (mouse) assessed as mortality at 3 mg/kg, ip after 6 days; format: organism-based; parameters: dose 3 mg/kg, route intraperitoneal; conditions: in vivo
[26] = tested on: Brassica rapa subsp. oleifera; experiment: Growth inhibition of Brassica rapa subsp. oleifera assessed as total chlorophyll level at 5 x 10^-5 M after 7 days; format: functional; parameters: scale not given: the % may be the effect or the level left
[27] = tested on: Sesamum indicum; experiment: Growth inhibition of Sesamum indicum (sesame) assessed as root growth at 1 x 10^-4 M after 7 days; format: functional
[28] = Toxicity in Mus musculus ddY (mouse) assessed as mortality at 8 mg/kg, ip after 6 days; format: organism-based; parameters: dose 8 mg/kg, route intraperitoneal; conditions: in vivo
[29] = tested on: Brassica rapa subsp. oleifera; experiment: Growth inhibition of Brassica rapa subsp. oleifera assessed as root growth at 5 x 10^-5 M after 7 days; format: functional
[30] = tested on: Echinochloa esculenta; experiment: Growth inhibition of Echinochloa esculenta assessed as root growth at 3 x 10^-4 M after 7 days; format: functional
[31] = tested on: Daucus carota; experiment: Growth inhibition of Daucus carota (carrot) assessed as root growth at 3 x 10^-4 M after 7 days; format: functional
[32] = tested on: Brassica rapa subsp. oleifera; experiment: Growth inhibition of Brassica rapa subsp. oleifera assessed as chlorophyll b level at 5 x 10^-5 M after 7 days; format: functional; parameters: scale not given: the % may be the effect or the level left
[33] = tested on: Allium tuberosum; experiment: Growth inhibition of Allium tuberosum assessed as root growth at 3 x 10^-5 M after 10 days; format: functional
[34] = tested on: Echinochloa esculenta; experiment: Growth inhibition of Echinochloa esculenta assessed as root growth at 3 x 10^-5 M after 7 days; format: functional
[35] = tested on: Brassica rapa subsp. oleifera; experiment: Growth inhibition of Brassica rapa subsp. oleifera assessed as chlorophyll b level at 3 x 10^-4 M after 7 days; format: functional; parameters: scale not given: the % may be the effect or the level left
[36] = Toxicity in Mus musculus ddY (mouse) assessed as mortality at 5 mg/kg, ip after 5 days; format: organism-based; parameters: dose 5 mg/kg, route intraperitoneal; conditions: in vivo
[37] = Toxicity in Mus musculus ddY (mouse) assessed as mortality at 8 mg/kg, ip after 7 days; format: organism-based; parameters: dose 8 mg/kg, route intraperitoneal; conditions: in vivo
[38] = tested on: Brassica rapa subsp. oleifera; experiment: Growth inhibition of Brassica rapa subsp. oleifera assessed as total chlorophyll level at 3 x 10^-4 M after 7 days; format: functional; parameters: scale not given: the % may be the effect or the level left
[39] = Toxicity in Mus musculus ddY (mouse) assessed as mortality at 8 mg/kg, ip after 2 days; format: organism-based; parameters: dose 8 mg/kg, route intraperitoneal; conditions: in vivo
[40] = Toxicity in Mus musculus ddY (mouse) assessed as mortality at 4 mg/kg, ip after 5 days; format: organism-based; parameters: dose 4 mg/kg, route intraperitoneal; conditions: in vivo
[41] = Toxicity in ip dosed Mus musculus ddY (mouse) assessed as mortality after 1 to 7 days; format: organism-based; conditions: in vivo
[42] = Toxicity in Mus musculus ddY (mouse) assessed as mortality at 7 mg/kg, ip after 4 days; format: organism-based; parameters: dose 7 mg/kg, route intraperitoneal; conditions: in vivo
[43] = tested on: Brassica rapa subsp. oleifera; experiment: Growth inhibition of Brassica rapa subsp. oleifera assessed as chlorophyll a level at 1 x 10^-4 M after 7 days; format: functional; parameters: scale not given: the % may be the effect or the level left
[44] = tested on: Brassica rapa subsp. oleifera; experiment: Growth inhibition of Brassica rapa subsp. oleifera assessed as chlorophyll a level at 3 x 10^-4 M after 7 days; format: functional; parameters: scale not given: the % may be the effect or the level left
[45] = tested on: Brassica rapa subsp. oleifera; experiment: Growth inhibition of Brassica rapa subsp. oleifera assessed as total chlorophyll level at 3 x 10^-5 M after 7 days; format: functional; parameters: scale not given: the % may be the effect or the level left
[46] = Toxicity in Mus musculus ddY (mouse) assessed as mortality at 4 mg/kg, ip after 1 day; format: organism-based; parameters: dose 4 mg/kg, route intraperitoneal; conditions: in vivo
[47] = Toxicity in Mus musculus ddY (mouse) assessed as mortality at 8 mg/kg, ip after 3 days; format: organism-based; parameters: dose 8 mg/kg, route intraperitoneal; conditions: in vivo
[48] = Toxicity in Mus musculus ddY (mouse) assessed as mortality at 3 mg/kg, ip after 3 days; format: organism-based; parameters: dose 3 mg/kg, route intraperitoneal; conditions: in vivo
[49] = Toxicity in Mus musculus ddY (mouse) assessed as mortality at 6 mg/kg, ip after 6 days; format: organism-based; parameters: dose 6 mg/kg, route intraperitoneal; conditions: in vivo
[50] = tested on: Lactuca sativa; experiment: Growth inhibition of Lactuca sativa (lettuce) assessed as root growth at 5 x 10^-5 M after 7 days; format: functional
[51] = Toxicity in Mus musculus ddY (mouse) assessed as mortality at 3 mg/kg, ip after 5 days; format: organism-based; parameters: dose 3 mg/kg, route intraperitoneal; conditions: in vivo
[52] = Toxicity in Mus musculus ddY (mouse) assessed as mortality at 5 mg/kg, ip after 7 days; format: organism-based; parameters: dose 5 mg/kg, route intraperitoneal; conditions: in vivo

NN1C(=O)CSC1=S [AMINORHODANINE]
mortality at 96 h [1]: 0% | Activity [2]: 11.07% | mortality at 48 h [3]: 60% | Activity [4]: 0 mm | mortality at 24 h [5]: 80% | Activity [6]: 14.1 mm | mortality at 48 h [7]: 60% | Activity [8]: 5.1 mm | Activity [9]: 4.78% | mortality at 72 h [10]: 80% | Activity [11]: 3.5 mm | Activity [12]: 9.22% | Activity [13]: 6.1 mm | Activity [14]: 11.2 mm | mortality at 168 h [15]: 0% | Activity [16]: 9.5 mm | mortality at 168 h [17]: 80% | mortality at 96 h [18]: 60% | mortality at 120 h [19]: 100% | mortality at 96 h [20]: 60% | Activity [21]: 1.4 mm | Activity [22]: 10.8 mm | mortality at 120 h [23]: 60% | Activity [24]: 3.2 mm | mortality at 144 h [25]: 0% | Activity [26]: 13.57% | Activity [27]: 3.2 mm | mortality at 144 h [28]: 100% | Root length [29]: 26.8 mm | Activity [30]: 3.1 mm | Activity [31]: 0 mm | Activity [32]: 4.36% | Activity [33]: 7 mm | Activity [34]: 16 mm | Activity [35]: 3.4% | mortality at 120 h [36]: 60% | mortality at 168 h [37]: 100% | Activity [38]: 11.16% | mortality at 48 h [39]: 100% | mortality at 120 h [40]: 20% | LD50 [41]: 5.07 mg/kg | mortality at 96 h [42]: 80% | Activity [43]: 8.05% | Activity [44]: 7.76% | Activity [45]: 15.83% | mortality at 24 h [46]: 20% | mortality at 72 h [47]: 100% | mortality at 72 h [48]: 0% | mortality at 144 h [49]: 60% | Activity [50]: 5.9 mm | mortality at 120 h [51]: 0% | mortality at 168 h [52]: 60%

Source: ChEMBL document CHEMBL3044763, “Inhibitory Activities of Rhodanine Derivatives on Plant Growth” (Biosci Biotechnol Biochem, 1996)
